Measurements from PubChem BioAssay AID2060512 (Molecular Pharmacology Branch, DTP, NCI, 2025).

Test system: 186277-243-T-J2-PDC complex spheroid viability
Test: Anticancer human tumor 186277-243-T-J2-PDC patient-derived colon adenocarcinoma cell line growth inhibition [GQUAD]
Conditions: for IC50: curve of first compound; for viability, T/C: stronger effect = lower value
Source text: DNA G-quadruplex Stabilizer Agents in Combinations in Complex Spheroids
A high-throughput screen of multi-cell type tumor spheroids was designed to identify active combinations of DNA G-quadruplex stabilizer agents and targeted small molecules. Complex spheroids include a stromal component modeled by human endothelial cells (HUVEC) and fibroblasts modeled by human mesenchymal stem cells (MSCs). The concentration ranges selected for each drug and investigational agent were based upon clinically achievable concentrations if the clinical Cmax of the agent was known.
Compounds. The drugs and investigational agents: pidnarulex (CX-5461; NSC782164), APTO-253 (NSC789042), BRACO-19 (NSC847499), peposertib (NSC802822), ceralasertib (NSC780249), elimusertib (NSC800525), camonsertib (NSC841442), AZD-1390 (NSC803789), olaparib (NSC753686), talazoparib (NSC767125), ART-558 (NSC835418), sotorasib (NSC818433), MRTX-1133 (NSC836407), SN-38 (NSC673596), topotecan (NSC609699), etoposide (NSC141540), doxorubicin (NSC123127), gemcitabine (NSC613327), 5-fluorouracil (NSC19893), paclitaxel (NSC125973), vemurafenib (NSC761431), panobinostat (NSC761190), R-306465 (JNJ-16241199; NSC773264), adavosertib (NSC754352), TP-3654 (NSC805149), carboplatin (NSC241240), KSQ-4279 (NSC840948), and staurosporine (NSC755774) were obtained from the National Cancer Institute (NCI) Developmental Therapeutics Program Chemical Repository (34). The FDA-approved anticancer drug set is available from the NCI Developmental Therapeutics Program. […] The stock solutions were prepared in dimethyl sulfoxide (DMSO, Sigma-Aldrich, St. Louis, MO, cat. D2650) at 800-fold the tested concentration and stored at -70 degrees C prior to their use. All drugs and investigational agents were tested over a range starting from a high concentration at or near the clinical Cmax and decreasing in half-log increments. If the clinical Cmax for an agent had not been determined, the highest concentration tested was 10 microM.
2.3 Cell Culture. All cells were maintained in an incubator at 37 degrees C and 5% CO2 with 95% humidity. The PDC lines were cultured according to standard operating procedures established by the NCI PDMR. All PDCs were thawed and cultured in Matrigel-coated flasks prepared with a working solution of 1X Ham's F-12 nutrient mix, without supplementation (Invitrogen, cat. 11765054), 100 U/mL penicillin-streptomycin (Invitrogen, cat. 15140122), and 2.5% Matrigel (Corning Inc., cat. 354248) for the first three passages. The 857933-349-R-J2-PDC line was cultured in 6C/Colon 1B media, which includes advanced DMEM/F-12 (Thermo Fisher Scientific, cat. 12634028), 10 mM HEPES (Thermo Fisher Scientific, cat. 15630080), 1X GlutaMAX supplement (Thermo Fisher Scientific, cat. 35050061), 0.1 mg/mL primocin (InvivoGen, cat. ant-pm-2), 10% defined fetal bovine serum, heat inactivated (HyClone Laboratories Inc., cat. SH30070.03HI), 50% L-WRN conditioned media (ATCC, cat. CRL-3276), 1.25 mM N-Acetyl-L-cysteine (Sigma-Aldrich, cat. A9165), 10 mM nicotinamide (Sigma-Aldrich, cat. N0636), 1X B-27 supplement (Thermo Fisher Scientific, cat. 17504044), 1X N-2 supplement (Thermo Fisher Scientific, cat. 17502048), 10 microM Y-27632 dihydrochloride (Tocris Bioscience, cat. 1254), and 50 ng/mL human EGF recombinant protein (Thermo Fisher Scientific, cat. PHG0311). The 485176-168-R4-J1-PDC line was cultured in Panc media, which includes all 6C/Colon 1B media components plus 100 ng/mL human FGF-10 (Thermo Fisher Scientific, cat. 100-26), 500 nM SB-431542 (Selleckchem, cat. S1067), and gastrin (Tocris, cat. 3006).
[…]

[1] = second compound 0.0316 µM, first compound 0.0316 µM
[2] = second compound 0.0316 µM, first compound 0.1 µM
[3] = second compound 0.0316 µM, first compound 0.316 µM
[4] = second compound 0.0316 µM, first compound 1 µM
[5] = second compound 0.0316 µM, first compound 3.16 µM
[6] = second compound 0.0316 µM, first compound 10 µM
[7] = second compound 0.1 µM, first compound 0.0316 µM
[8] = second compound 0.1 µM, first compound 0.1 µM
[9] = second compound 0.1 µM, first compound 0.316 µM
[10] = second compound 0.1 µM, first compound 1 µM
[11] = second compound 0.1 µM, first compound 3.16 µM
[12] = second compound 0.1 µM, first compound 10 µM
[13] = second compound 0.316 µM, first compound 0.0316 µM
[14] = second compound 0.316 µM, first compound 0.1 µM
[15] = second compound 0.316 µM, first compound 0.316 µM
[16] = second compound 0.316 µM, first compound 1 µM
[17] = second compound 0.316 µM, first compound 3.16 µM
[18] = second compound 0.316 µM, first compound 10 µM
[19] = second compound 1 µM, first compound 0.0316 µM
[20] = second compound 1 µM, first compound 0.1 µM
[21] = second compound 1 µM, first compound 0.316 µM
[22] = second compound 1 µM, first compound 1 µM
[23] = second compound 1 µM, first compound 3.16 µM
[24] = second compound 1 µM, first compound 10 µM
[25] = second compound 3.16 µM, first compound 0.0316 µM
[26] = second compound 3.16 µM, first compound 0.1 µM
[27] = second compound 3.16 µM, first compound 0.316 µM
[28] = second compound 3.16 µM, first compound 1 µM
[29] = second compound 3.16 µM, first compound 3.16 µM
[30] = second compound 3.16 µM, first compound 10 µM
[31] = second compound 10 µM, first compound 0.0316 µM
[32] = second compound 10 µM, first compound 0.1 µM
[33] = second compound 10 µM, first compound 0.316 µM
[34] = second compound 10 µM, first compound 1 µM
[35] = second compound 10 µM, first compound 3.16 µM
[36] = second compound 10 µM, first compound 10 µM
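Also: spheroids exposed to drugs for 7 days.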
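For viability, T/C in this document: 100% = DMSO vehicle control viability.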

## CC(=O)O[C@H]1C(=O)[C@@]2(C)[C@H]([C@H](OC(=O)c3ccccc3)[C@]3(O)C[C@H](OC(=O)[C@H](O)[C@@H](NC(=O)c4ccccc4)c4ccccc4)C(C)=C1C3(C)C)[C@]1(OC(C)=O)CO[C@@H]1C[C@@H]2O + CN(C)c1ccc(Nc2c3ccc(NC(=O)CCN4CCCC4)cc3nc3cc(NC(=O)CCN4CCCC4)ccc23)cc1
Second compound 0.0316 µM
  IC50: < 0.0316 µM
Second compound 0.1 µM
  IC50: < 0.0316 µM
Second compound 0.316 µM
  IC50: < 0.0316 µM
Second compound 1 µM
  IC50: < 0.0316 µM
Second compound 3.16 µM
  IC50: < 0.0316 µM
Second compound 10 µM
  IC50: < 0.0316 µM
[1]
  viability, T/C: 19.8%
[2]
  viability, T/C: 6.1%
[3]
  viability, T/C: 5.38%
[4]
  viability, T/C: 3.55%
[5]
  viability, T/C: 3.54%
[6]
  viability, T/C: 3.9%
[7]
  viability, T/C: 18.9%
[8]
  viability, T/C: 7.57%
[9]
  viability, T/C: 4.53%
[10]
  viability, T/C: 3.24%
[11]
  viability, T/C: 4.81%
[12]
  viability, T/C: 4.04%
[13]
  viability, T/C: 20.1%
[14]
  viability, T/C: 7.12%
[15]
  viability, T/C: 4.2%
[16]
  viability, T/C: 4.04%
[17]
  viability, T/C: 4.15%
[18]
  viability, T/C: 3.98%
[19]
  viability, T/C: 11.8%
[20]
  viability, T/C: 7.8%
[21]
  viability, T/C: 5.59%
[22]
  viability, T/C: 3.93%
[23]
  viability, T/C: 4.16%
[24]
  viability, T/C: 4.31%
[25]
  viability, T/C: 19.9%
[26]
  viability, T/C: 6.16%
[27]
  viability, T/C: 3.9%
[28]
  viability, T/C: 4.93%
[29]
  viability, T/C: 4.08%
[30]
  viability, T/C: 4.24%
[31]
  viability, T/C: 19.5%
[32]
  viability, T/C: 6.64%
[33]
  viability, T/C: 3.63%
[34]
  viability, T/C: 3.44%
[35]
  viability, T/C: 2.96%
[36]
  viability, T/C: 2.41%

## O=c1[nH]cc(F)c(=O)[nH]1 + CN(C)c1ccc(Nc2c3ccc(NC(=O)CCN4CCCC4)cc3nc3cc(NC(=O)CCN4CCCC4)ccc23)cc1
Second compound 0.0316 µM
  IC50: > 10 µM
Second compound 0.1 µM
  IC50: > 10 µM
Second compound 0.316 µM
  IC50: > 10 µM
Second compound 1 µM
  IC50: 7.5 µM
Second compound 3.16 µM
  IC50: 6.32 µM
Second compound 10 µM
  IC50: 7.04 µM
[1]
  viability, T/C: 99%
[2]
  viability, T/C: 97.1%
[3]
  viability, T/C: 89%
[4]
  viability, T/C: 98.8%
[5]
  viability, T/C: 68.8%
[6]
  viability, T/C: 50.8%
[7]
  viability, T/C: 98.9%
[8]
  viability, T/C: 87%
[9]
  viability, T/C: 102%
[10]
  viability, T/C: 102%
[11]
  viability, T/C: 67.5%
[12]
  viability, T/C: 54.2%
[13]
  viability, T/C: 94.2%
[14]
  viability, T/C: 94.5%
[15]
  viability, T/C: 101%
[16]
  viability, T/C: 93.4%
[17]
  viability, T/C: 62.1%
[18]
  viability, T/C: 51.1%
[19]
  viability, T/C: 87.5%
[20]
  viability, T/C: 91.3%
[21]
  viability, T/C: 98.6%
[22]
  viability, T/C: 112%
[23]
  viability, T/C: 64.7%
[24]
  viability, T/C: 45.1%
[25]
  viability, T/C: 97.2%
[26]
  viability, T/C: 104%
[27]
  viability, T/C: 104%
[28]
  viability, T/C: 101%
[29]
  viability, T/C: 66.5%
[30]
  viability, T/C: 39.1%
[31]
  viability, T/C: 90.9%
[32]
  viability, T/C: 98.4%
[33]
  viability, T/C: 98.5%
[34]
  viability, T/C: 102%
[35]
  viability, T/C: 65.3%
[36]
  viability, T/C: 43.3%
